# In PubChem BioAssay AID220 (DTP/NCI, 2004):
# Values joined by “and” are separate entries in the source; they are usually repeats but may differ in a detail not shown here. Equal values may be shown once. Results filed as inconclusive are left out.
# System: CD8F1 mice, subcutaneous mammary adenocarcinoma, T/C%
# Test: NCI In Vivo Anticancer Drug Screen. Data for tumor model Mammary Adenocarcinoma CD8F1 (subcutaneous) in CD8F1
# Settings: higher = larger tumour
# In short: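 Transplantable tumors were established in mice, animals were dosed with compound or vehicle, and survival or tumor size was then measured in both groups. The treated result was divided by the control result.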
# [1] = endpoint: median tumor weight (est.), dose: 12.5 mg/kg/injection, schedule: Q07DX005 (ip), vehicle: saline
# [2] = endpoint: median tumor weight (est.), dose: 25.0 mg/kg/injection, schedule: Q07DX005 (ip), vehicle: saline
# [3] = endpoint: median tumor weight change, dose: 125.0 mg/kg/injection, schedule: Q01DX001 (ip), vehicle: Klucel (hydroxypropylcellulose) (HPC)
# [4] = endpoint: median tumor weight change, dose: 250.0 mg/kg/injection, schedule: Q01DX001 (ip), vehicle: Klucel (hydroxypropylcellulose) (HPC)
# [5] = endpoint: median tumor weight change, dose: 500.0 mg/kg/injection, schedule: Q01DX001 (ip), vehicle: Klucel (hydroxypropylcellulose) (HPC)
# [6] = endpoint: median tumor weight change, dose: 62.5 mg/kg/injection, schedule: Q01DX001 (ip), vehicle: Klucel (hydroxypropylcellulose) (HPC)
# [7] = endpoint: median tumor weight change, dose: 100.0 mg/kg/injection, schedule: Q01DX001 (ip), vehicle: saline with Tween-80
# [8] = endpoint: median tumor weight (est.), dose: 50.0 mg/kg/injection, schedule: Q07DX005 (ip), vehicle: Klucel (hydroxypropylcellulose) (HPC)
# [9] = endpoint: median tumor weight (est.), dose: 100.0 mg/kg/injection, schedule: Q07DX005 (ip), vehicle: Klucel (hydroxypropylcellulose) (HPC)
# [10] = endpoint: median tumor weight (est.), dose: 200.0 mg/kg/injection, schedule: Q07DX005 (ip), vehicle: Klucel (hydroxypropylcellulose) (HPC)
# [11] = endpoint: median tumor weight change, dose: 125.0 mg/kg/injection, schedule: Q01DX001 (ip), vehicle: saline
# [12] = endpoint: median tumor weight change, dose: 250.0 mg/kg/injection, schedule: Q01DX001 (ip), vehicle: saline
# [13] = endpoint: median tumor weight (est.), dose: 12.5 mg/kg/injection, schedule: Q07DX005 (ip), vehicle: Klucel (hydroxypropylcellulose) (HPC)
# [14] = endpoint: median tumor weight (est.), dose: 50.0 mg/kg/injection, schedule: Q07DX005 (ip), vehicle: saline
# [15] = endpoint: median tumor weight (est.), dose: 100.0 mg/kg/injection, schedule: Q07DX005 (ip), vehicle: saline
# [16] = endpoint: median tumor weight (est.), dose: 200.0 mg/kg/injection, schedule: Q07DX005 (ip), vehicle: saline
# [17] = endpoint: median tumor weight (est.), dose: 400.0 mg/kg/injection, schedule: Q07DX005 (ip), vehicle: saline
smiles,measurement,setting,value
CN1c2c(nc(N)[nH]c2=O)NCC1CCNc1ccc(C(=O)NC(CCC(=O)O)C(=O)O)cc1 (stereo unspecified),T/C,"endpoint: mean tumor weight, dose: 25.0 mg/kg/injection, schedule: Q07DX008 (ip), vehicle: sodium bicarbonate",119 % of control
same,T/C,"endpoint: mean tumor weight, dose: 50.0 mg/kg/injection, schedule: Q07DX008 (ip), vehicle: sodium bicarbonate",77 % of control
same,T/C,"endpoint: mean tumor weight, dose: 100.0 mg/kg/injection, schedule: Q07DX008 (ip), vehicle: sodium bicarbonate",72 % of control
same,T/C,[1],103 % of control
same,T/C,[2],95 % of control
same,T/C,"endpoint: median tumor weight (est.), dose: 800.0 mg/kg/injection, schedule: Q07DX005 (ip), vehicle: saline",98 % of control
CC(=O)NC(CCc1ccc(Cl)c(Cl)c1)c1cccc(O)c(=O)c1 (stereo unspecified),T/C,"endpoint: median tumor weight change, dose: 31.0 mg/kg/injection, schedule: Q01DX001 (ip), vehicle: Klucel (hydroxypropylcellulose) (HPC)",114 % of control
same,T/C,"endpoint: median tumor weight change, dose: 62.0 mg/kg/injection, schedule: Q01DX001 (ip), vehicle: Klucel (hydroxypropylcellulose) (HPC)",99 % of control
same,T/C,[3],165 % of control
same,T/C,[4],88 % of control
same,T/C,[5],88 % of control
CC(C)CC(=O)NC(C(=O)NC(C(=O)NC(CC(C)C)C(O)CC(=O)NC(C)C(=O)NC(CC(C)C)C(O)CC(=O)O)C(C)C)C(C)C (stereo unspecified),T/C,[6],97 % of control
CCc1nc(N)nc(N)c1-c1ccc(Cl)c([N+](=O)[O-])c1,T/C,"endpoint: median tumor weight change, dose: 6.25 mg/kg/injection, schedule: Q01DX001 (ip), vehicle: saline with Tween-80",47 % of control
same,T/C,"endpoint: median tumor weight change, dose: 12.5 mg/kg/injection, schedule: Q01DX001 (ip), vehicle: saline with Tween-80",39 % of control
same,T/C,"endpoint: median tumor weight change, dose: 25.0 mg/kg/injection, schedule: Q01DX001 (ip), vehicle: saline with Tween-80",20 % of control
same,T/C,"endpoint: median tumor weight change, dose: 50.0 mg/kg/injection, schedule: Q01DX001 (ip), vehicle: saline with Tween-80",38 % of control
same,T/C,[7],47 % of control
Cc1ccc(C2NC(=S)N3C(c4ccc(C)cc4)NC(=S)N23)cc1 (stereo unspecified),T/C,[3],77 % of control
same,T/C,[4],104 % of control
same,T/C,[5],107 % of control
same,T/C,"endpoint: median tumor weight change, dose: 1000.0 mg/kg/injection, schedule: Q01DX001 (ip), vehicle: Klucel (hydroxypropylcellulose) (HPC)",94 % of control
same,T/C,"endpoint: median tumor weight change, dose: 2000.0 mg/kg/injection, schedule: Q01DX001 (ip), vehicle: Klucel (hydroxypropylcellulose) (HPC)",68 % of control
CCCCNC(C)[C@]1(O)Cc2c(O)c3c(c(O)c2[C@@H](OC2CC(N)C(O)C(C)O2)C1)C(=O)c1c(OC)cccc1C3=O (stereo partly specified),T/C,"endpoint: median tumor weight (est.), dose: 2.67 mg/kg/injection, schedule: Q07DX005 (ip), vehicle: water",89 % of control
same,T/C,"endpoint: median tumor weight (est.), dose: 4.0 mg/kg/injection, schedule: Q07DX005 (ip), vehicle: water",74 % of control
same,T/C,"endpoint: median tumor weight (est.), dose: 6.0 mg/kg/injection, schedule: Q07DX005 (ip), vehicle: water",47 % of control
CC1CN=C(c2ccc(NC(=O)c3ccc(C(=O)Nc4ccc(C5=NCC(C)N5)cc4)cc3)cc2)N1 (stereo unspecified),T/C,[8],51 % of control
same,T/C,[9],94 % of control
same,T/C,[10],36 % of control
CC(=O)OCC1OC(OC(C)=O)C(NC(=O)N(CCCl)N=O)C(OC(C)=O)C1OC(C)=O (stereo unspecified),T/C,"endpoint: median tumor weight (est.), dose: 1.5 mg/kg/injection, schedule: Q07DX005 (ip), vehicle: Klucel (hydroxypropylcellulose) (HPC)",61 % of control
same,T/C,"endpoint: median tumor weight (est.), dose: 3.0 mg/kg/injection, schedule: Q07DX005 (ip), vehicle: Klucel (hydroxypropylcellulose) (HPC)",41 % of control and 63 % of control and 66 % of control
COc1cc([C@@H]2c3cc4c(c(O)c3C[C@H]3COC(=O)[C@@H]32)OCO4)cc(OC)c1OC,T/C,"endpoint: median tumor weight (est.), dose: 2.0 mg/kg/injection, schedule: Q07DX005 (ip), vehicle: saline",45 % of control
same,T/C,"endpoint: median tumor weight (est.), dose: 4.0 mg/kg/injection, schedule: Q07DX005 (ip), vehicle: saline",222 % of control
same,T/C,"endpoint: median tumor weight (est.), dose: 8.0 mg/kg/injection, schedule: Q07DX005 (ip), vehicle: saline",86 % of control
same,T/C,"endpoint: median tumor weight (est.), dose: 16.0 mg/kg/injection, schedule: Q07DX005 (ip), vehicle: saline",96 % of control
COc1cc(Cc2nccc3cc(OC)c(OC)cc23)c(C(C)=O)cc1OC,T/C,"endpoint: median tumor weight change, dose: 62.0 mg/kg/injection, schedule: Q01DX001 (ip), vehicle: saline",93 % of control
same,T/C,"endpoint: median tumor weight change, dose: 62.5 mg/kg/injection, schedule: Q01DX001 (ip), vehicle: saline",41 % of control
same,T/C,"endpoint: median tumor weight change, dose: 62.5 mg/kg/injection, schedule: Q01DX001 (ip), vehicle: suspension in saline",54 % of control
same,T/C,[11],33 % of control and 35 % of control
same,T/C,"endpoint: median tumor weight change, dose: 125.0 mg/kg/injection, schedule: Q01DX001 (ip), vehicle: suspension in saline",57 % of control
same,T/C,[12],-6 % of control
CCCCCC#CC1OC12CCCCC2 (stereo unspecified),T/C,[7],37 % of control
same,T/C,"endpoint: median tumor weight change, dose: 200.0 mg/kg/injection, schedule: Q01DX001 (ip), vehicle: saline with Tween-80",106 % of control
same,T/C,"endpoint: median tumor weight change, dose: 400.0 mg/kg/injection, schedule: Q01DX001 (ip), vehicle: saline with Tween-80",51 % of control
same,T/C,"endpoint: median tumor weight change, dose: 800.0 mg/kg/injection, schedule: Q01DX001 (ip), vehicle: saline with Tween-80",100 % of control
COC(=O)CC(N)C(=O)O (stereo unspecified),T/C,[11],60 % of control
same,T/C,[12],61 % of control
COc1ccc([C@@]23Oc4cc(OC)cc(OC)c4[C@]2(O)[C@H](O)[C@H](C(=O)N(C)C)[C@H]3c2ccccc2)cc1,T/C,"endpoint: median tumor weight change, dose: 2.5 mg/kg/injection, schedule: Q01DX001 (ip), vehicle: Klucel (hydroxypropylcellulose) (HPC)",212 % of control
same,T/C,"endpoint: median tumor weight change, dose: 5.0 mg/kg/injection, schedule: Q01DX001 (ip), vehicle: Klucel (hydroxypropylcellulose) (HPC)",105 % of control
same,T/C,"endpoint: median tumor weight change, dose: 10.0 mg/kg/injection, schedule: Q01DX001 (ip), vehicle: Klucel (hydroxypropylcellulose) (HPC)",72 % of control
NNC(=S)N/N=C/c1ccccn1,T/C,"endpoint: median tumor weight (est.), dose: 6.25 mg/kg/injection, schedule: Q07DX005 (ip), vehicle: saline with Tween-80",112 % of control
same,T/C,"endpoint: median tumor weight (est.), dose: 12.5 mg/kg/injection, schedule: Q07DX005 (ip), vehicle: saline with Tween-80",84 % of control
same,T/C,"endpoint: median tumor weight (est.), dose: 25.0 mg/kg/injection, schedule: Q07DX005 (ip), vehicle: saline with Tween-80",81 % of control
same,T/C,"endpoint: median tumor weight (est.), dose: 50.0 mg/kg/injection, schedule: Q07DX005 (ip), vehicle: saline with Tween-80",59 % of control
O=S(CCCl)CCCl,T/C,"endpoint: median tumor weight (est.), dose: 1.56 mg/kg/injection, schedule: Q07DX005 (ip), vehicle: Klucel (hydroxypropylcellulose) (HPC)",75 % of control
same,T/C,"endpoint: median tumor weight (est.), dose: 3.12 mg/kg/injection, schedule: Q07DX005 (ip), vehicle: Klucel (hydroxypropylcellulose) (HPC)",100 % of control
same,T/C,"endpoint: median tumor weight (est.), dose: 6.25 mg/kg/injection, schedule: Q07DX005 (ip), vehicle: Klucel (hydroxypropylcellulose) (HPC)",230 % of control
same,T/C,[13],91 % of control
COP12(OCCO1)SC(C(F)(F)F)=C(C(F)(F)F)S2,T/C,[2],210 % of control
same,T/C,[14],183 % of control
same,T/C,[15],351 % of control
same,T/C,[16],159 % of control
same,T/C,[17],72 % of control
COC1C(/C=C/C(C)=O)OC2OC(C)(C)OC21 (stereo unspecified),T/C,[13],165 % of control
same,T/C,[1],76 % of control
same,T/C,"endpoint: median tumor weight (est.), dose: 25.0 mg/kg/injection, schedule: Q07DX005 (ip), vehicle: Klucel (hydroxypropylcellulose) (HPC)",99 % of control
same,T/C,[2],83 % of control
same,T/C,[8],91 % of control
same,T/C,[14],38 % of control
same,T/C,[9],96 % of control
same,T/C,[15],101 % of control
same,T/C,[10],71 % of control
same,T/C,[16],101 % of control
same,T/C,[17],84 % of control
CCc1ccc(C2=C(O)C(=O)C(c3ccccc3)=C(O)C2=O)cc1,T/C,"endpoint: median tumor weight change, dose: 31.25 mg/kg/injection, schedule: Q01DX001 (ip), vehicle: Klucel (hydroxypropylcellulose) (HPC)",84 % of control
same,T/C,[6],106 % of control
same,T/C,[3],59 % of control
NCC1CCC(C(=O)O)CC1 (stereo unspecified),T/C,"endpoint: median tumor weight change, dose: 125.0 mg/kg/injection, schedule: Q01DX001 (ip), vehicle: saline with Tween-80",63 % of control
same,T/C,"endpoint: median tumor weight change, dose: 250.0 mg/kg/injection, schedule: Q01DX001 (ip), vehicle: saline with Tween-80",86 % of control
same,T/C,"endpoint: median tumor weight change, dose: 500.0 mg/kg/injection, schedule: Q01DX001 (ip), vehicle: saline with Tween-80",36 % of control
same,T/C,"endpoint: median tumor weight change, dose: 1000.0 mg/kg/injection, schedule: Q01DX001 (ip), vehicle: saline with Tween-80",97 % of control
same,T/C,"endpoint: median tumor weight change, dose: 2000.0 mg/kg/injection, schedule: Q01DX001 (ip), vehicle: saline with Tween-80",62 % of control
